According to patent US20060148030A1, “Nuclear receptor err y 3” (FUJISAWA PHARMACEUTICAL CO., LTD, priority 2002, published 2006):

T1: TR (Homo sapiens, UniProt P10827)
T1 construct: expressed in transfected cells; host or cells: CV-1 (African green monkey kidney)
T1 sequence (P10827 1-410 isoform P10827-2): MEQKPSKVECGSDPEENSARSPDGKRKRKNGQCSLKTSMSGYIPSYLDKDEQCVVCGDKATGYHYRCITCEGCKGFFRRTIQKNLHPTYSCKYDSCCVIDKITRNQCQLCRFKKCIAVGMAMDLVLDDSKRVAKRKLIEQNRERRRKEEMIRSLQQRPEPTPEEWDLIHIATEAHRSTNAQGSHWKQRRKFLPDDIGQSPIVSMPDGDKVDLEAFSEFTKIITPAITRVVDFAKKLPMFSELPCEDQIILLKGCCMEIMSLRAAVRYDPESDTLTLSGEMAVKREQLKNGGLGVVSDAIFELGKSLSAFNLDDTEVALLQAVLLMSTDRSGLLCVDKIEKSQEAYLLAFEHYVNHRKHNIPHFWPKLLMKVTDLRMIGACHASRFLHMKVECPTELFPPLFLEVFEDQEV

T2: ERα (Homo sapiens, UniProt P03372)
T2 construct: expressed in transfected cells; host or cells: CV-1 (African green monkey kidney)
T2 sequence (P03372 1-595): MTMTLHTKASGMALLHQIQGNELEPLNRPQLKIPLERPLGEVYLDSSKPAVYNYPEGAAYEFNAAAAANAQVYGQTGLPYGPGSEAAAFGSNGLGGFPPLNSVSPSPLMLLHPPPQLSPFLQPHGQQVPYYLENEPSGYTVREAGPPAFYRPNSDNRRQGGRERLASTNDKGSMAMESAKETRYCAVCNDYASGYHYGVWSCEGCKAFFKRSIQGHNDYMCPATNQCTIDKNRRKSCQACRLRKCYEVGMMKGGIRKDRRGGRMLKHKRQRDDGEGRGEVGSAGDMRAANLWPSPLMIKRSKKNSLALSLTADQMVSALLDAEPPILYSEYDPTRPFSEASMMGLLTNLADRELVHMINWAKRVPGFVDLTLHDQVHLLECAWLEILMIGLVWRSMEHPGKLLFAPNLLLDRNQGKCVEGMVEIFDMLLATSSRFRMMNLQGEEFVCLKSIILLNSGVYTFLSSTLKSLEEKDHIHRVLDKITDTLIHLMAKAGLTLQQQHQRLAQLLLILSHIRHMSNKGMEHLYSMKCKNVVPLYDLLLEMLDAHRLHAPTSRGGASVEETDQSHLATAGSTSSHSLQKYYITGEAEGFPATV


What was measured:
TR = target: T1, TR; test: Reporter gene assay, ERRγ3 coexisted with TR in CV-1 cells; type: cell-based
ERRγ2 [1] = settings: stated as known property; cited from earlier work
ERα = target: T2, ERα; test: Reporter gene assay, ERRγ3 or ERRγ2 coexisted with ERα in CV-1 cells; type: cell-based; settings: for enhancement of the transcriptional activation function of ERα: absence of 4-hydroxytamoxifen
Procedure: (§1) The reporter gene assay was performed using CV-1 cells (African green monkey kidney-derived cell line) as hosts. Host cells were transfected with luciferase reporter plasmids and expression plasmids for ERRγ3, ERRγ2, or both. They were then exposed to 4-hydroxytamoxifen at different concentrations (0, 10^−10 to −10^−5 M) for 24 hours, whereupon luciferase activity within the cells was measured.
(§2) Transfection was performed as follows: CV-1 cells were suspended at 2×10^5 cells/2.5 ml in DMEM medium supplemented with 10% fetal bovine serum, 2000 U/l of penicillin G, and 100 mg/l streptomycin. These cells were seeded to a 6-well plate at 2.5 ml/well, and cultured for 18 to 24 hours in a CO2 incubator at 37° C. in the presence of 5% CO2. 1 μg of each of the transcription factor expression plasmid, the luciferase reporter plasmid, and another luciferase reporter plasmid for normalizing the measured value (pRL-TK), were dissolved in Opti-MEM (Gibco BRL) to total of 150 μl. 7 μl of the cell transfection reagent LipofectAMINE 2000 (Gibco BRL) was diluted in 143 μl of Opti-MEM, and this was added to the mixture drop by drop while stirring. The mixture was incubated for 20 minutes.
The LipofectAMINE-DNA mixture was diluted in 1.5 ml of Opti-MEM, and added to cells that had been twice washed with 1 ml of PBS(−). The cells were cultured for four hours. The transfection reagent was removed from the culture, and 200 μl of trypsin/EDTA was added to the cells, which were then incubated at 37° C. for five minutes. […] of DMEM was added to suspend the cells, which were transferred to a centrifuge tube, and centrifuged for three minutes at 1000 rpm. After centrifugation, the cells were resuspended in DMEM to a concentration of 1.6×10^4 cells/100 μl, and 100 μl samples were seeded to a 96-well plate. When evaluating agents, a two-fold concentrated solution was made by pre-diluting a 1000 times concentrated agent DMSO solution with culture medium. 50 μl of the solution was mixed with 50 μl of a cell suspension at 1.6×10^4 cells/50 μl, and the culture was incubated in a CO2 incubator at 37° C. and 5% CO2 for 24 hours.
Luciferase activity was measured using the Dual-Luciferase™ Reporter Assay System (Promega). The culture supernatant was removed from each well of the 96-well plate and washed once with 100 μl of PBS(−). 20 μl of ×1 PLB (Passive Lysis Buffer) was added, and the mixture was incubated at room temperature for 15 minutes, and then stored at −20° C. in the freezer until use. […] The protocol for measurement was as follows: 50 μl of Luciferase Assay Reagent II was added to each well, stirred for 0.3 seconds and measured for one second. […] of Stop&Glo™ Reagent was then added, stirred for 0.3 seconds, and measured for one second. […] Average values and standard errors were calculated from triplicate samples.
To confirm whether or not ERRγ3 can regulate the transcription-controlling function of nuclear receptors other than ERRγ2, ERRγ3's function of regulating the transcription-controlling activity of nuclear receptors related to ERRγ (ERα, ERβ, and TR) was evaluated using a reporter gene assay. […] In addition to 4-hydroxytamoxifen, the cells were also contacted with 10^−5 M of (R)-estradiol in experiments related to ERα and ERβ, and 10^−5 M of thyroxine in the experiment related to TR.
The transfected cells were contacted with varying concentrations of 4-hydroxytamoxifen in the absence of […] or presence of 10^−7 M of β-estradiol.

ERβ = target: T3, ERβ (Homo sapiens, UniProt Q92731); test: Reporter gene assay, ERRγ3 coexisted with ERβ in CV-1 cells; type: cell-based
T3 construct: expressed in transfected cells; host or cells: CV-1 (African green monkey kidney)

ERRγ2 [2] = test: Reporter gene assay, ERRγ3 coexisted with ERRγ2, ERE luciferase reporter in CV-1 cells; type: cell-based, human; settings: FIG. 15
Procedure: as §1
as §2, with “The mixture was incubated for 20 minutes.” left out
Luciferase activity was measured using the Dual-Luciferase™ Reporter Assay System (Promega). […] The protocol for measurement was as follows: 50 μl of Luciferase Assay Reagent II was added to each well, stirred for 0.3 seconds and measured for one second.

Sequence of ERRγ2 (P62508 whole entry): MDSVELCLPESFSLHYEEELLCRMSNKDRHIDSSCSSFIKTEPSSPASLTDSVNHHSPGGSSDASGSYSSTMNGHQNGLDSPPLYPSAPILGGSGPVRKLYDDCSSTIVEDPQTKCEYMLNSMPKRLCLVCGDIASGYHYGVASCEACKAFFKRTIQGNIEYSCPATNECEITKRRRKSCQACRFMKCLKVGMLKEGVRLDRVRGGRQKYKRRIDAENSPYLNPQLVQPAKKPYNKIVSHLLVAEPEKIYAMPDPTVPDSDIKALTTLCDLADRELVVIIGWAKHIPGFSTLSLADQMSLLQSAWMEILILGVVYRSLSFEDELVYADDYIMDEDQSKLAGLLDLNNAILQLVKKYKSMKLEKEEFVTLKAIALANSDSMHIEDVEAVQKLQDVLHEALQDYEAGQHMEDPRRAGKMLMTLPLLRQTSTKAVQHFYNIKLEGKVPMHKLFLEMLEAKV
T3 sequence (Q92731 whole entry): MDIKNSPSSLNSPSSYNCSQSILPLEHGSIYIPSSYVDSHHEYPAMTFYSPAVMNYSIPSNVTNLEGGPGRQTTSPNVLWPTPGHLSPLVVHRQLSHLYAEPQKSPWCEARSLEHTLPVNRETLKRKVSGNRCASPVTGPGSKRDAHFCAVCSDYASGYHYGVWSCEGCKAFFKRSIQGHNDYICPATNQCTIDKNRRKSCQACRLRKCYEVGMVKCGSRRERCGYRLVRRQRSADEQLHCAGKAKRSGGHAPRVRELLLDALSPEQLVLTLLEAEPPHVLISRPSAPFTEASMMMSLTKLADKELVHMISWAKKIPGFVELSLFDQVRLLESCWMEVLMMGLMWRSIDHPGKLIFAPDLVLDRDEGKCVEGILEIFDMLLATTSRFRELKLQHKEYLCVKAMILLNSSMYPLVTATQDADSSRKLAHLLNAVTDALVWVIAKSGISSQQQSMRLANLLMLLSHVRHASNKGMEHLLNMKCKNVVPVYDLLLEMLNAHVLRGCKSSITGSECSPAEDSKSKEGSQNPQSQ

effect of 4-hydroxytamoxifen on the enhancing function of ERRγ3 on TR (TR; 10^−5 M thyroxine present)	effect of 4-hydroxytamoxifen on the enhancing function of ERRγ3 on ERβ (ERβ; 10^−5 M (R)-estradiol present)	function enhancement of the transcription-controlling activity of TR (TR; ERRγ3 with TR, 10^−5 M thyroxine, FIG. 18)	function enhancement of the transcription-controlling activity of ERα (ERα; ERRγ3 with ERα, 10^−5 M (R)-estradiol, CV-1 cells, FIG. 16)	enhancement of the transcriptional activation function of ERα (ERα; absence of β-estradiol, FIG. 19)	enhancement of the transcriptional activation function of ERα (ERα; presence of 10^−7 M β-estradiol, FIG. 20)	function enhancement of the transcription-controlling activity of ERβ (ERβ; ERRγ3 with ERβ, 10^−5 M (R)-estradiol, FIG. 17)	Molecule	binding to ERRγ2 (ERRγ2 [1])	effect of 4-hydroxytamoxifen on the function of ERRγ3 on ERα (ERα; in the presence of the ligand, 10^−5 M (R)-estradiol, CV-1 cells)	effect of 4-hydroxytamoxifen on the transcription enhancing function of ERRγ3 on ERα (ERα; β-estradiol absent or 10^−7 M, 4-hydroxytamoxifen at high concentrations, FIGS. 19-20)	4-hydroxytamoxifen concentration at which the enhancing function of ERRγ3 on ERRγ2 was reduced (ERRγ2 [2]; CV-1 cells, 24 hours exposure)	enhancement of the transcriptional activation function of ERRγ2 (ERRγ2 [2]; ERRγ3 coexisted with ERRγ2, CV-1 cells, ERE luciferase reporter)
no function-enhancing effect	no function-enhancing effect						4-hydroxytamoxifen [reference compound]	capable of binding	increased dependent on the concentration of 4-hydroxytamoxifen	reduced in the presence of 4-hydroxytamoxifen at high concentrations	≥ 10^−6 M	
		128-229%	13-74%	64%	18%	600-650%	ERRγ3: novel ERRγ isoform, nuclear receptor protein of 396 amino acids (SEQ ID NO: 2) lacking part of the DNA binding domain (protein, listed as Homo sapiens) MSNKDRHIDSSCSSFIKTEPSSPASLTDSVNHHSPGGSSDASGSYSSTMNGHQNGLDSPPLYPSAPILGGSGPVRKLYDDCSSTIVEDPQTKCEYMLNSMPKRLCLVCGDIASGYHYGVASCEACKAFFKRTIQGVRLDRVRGGRQKYKRRIDAENSPYLNPQLAQPAKKPYNKIVSHLLVAEPEKIYAMPDPTVPDSDIKALTTLCDLADRELVVIIGWAKHIPGFSTLSLADQMSLLQSAWMEILILGVVYRSLSFEDELVYADDYIMDEDQSKLAGLLDLNNAILQLVKKYKSMKLEKEEFVTLKAIALANSDSMHIEDVEAVQKLQDVLHEALQDYEAGQHMEDPRRAGKMLMTLPLLRQTSTKAVQHFYNIKLEGKVPMHKLFLEMLEAKV					53-68%
